The values below come from ChEMBL document CHEMBL5390310, “Rapid PROTAC Discovery Platform: Nanomole-Scale Array Synthesis and Direct Screening of Reaction Mixtures” (ACS Med Chem Lett, 2023).

Data set [1] has as its target T1, von Hippel-Lindau disease tumor suppressor/Bromodomain-containing protein 4 (Homo sapiens, UniProt O60885+P40337). Kind of data set: Protac activity at VHL E3 ligase/BRD4 in HEK293 cells assessed as BRD4 degradation by HiBiT assay relative to control. The format is cell-based.
The target in data set [2] is T1, von Hippel-Lindau disease tumor suppressor/Bromodomain-containing protein 4. Kind of data set: Protac activity at VHL E3 ligase/BRD4 in HEK293 cells assessed as BRD4 degradation by HiBiT assay. The format is cell-based.
Data set [3] concerns HEK293. Briefly: Cytotoxicity against HEK293 cells assessed as cell viability by CellTiter-Glo based assay. The format is toxicity. The conditions noted are these: human.
The target of data set [4] is T1, von Hippel-Lindau disease tumor suppressor/Bromodomain-containing protein 4. Kind of data set: Protac activity at VHL E3 ligase/BRD4 in HEK293 cells assessed as degradation maximum by HiBiT assay relative to control. The format is cell-based.

Structures are written as SMILES. The source made the active and inactive calls. No cut-off for these calls is given here.

T1 sequence (P40337 whole entry, looked up, other chains not shown): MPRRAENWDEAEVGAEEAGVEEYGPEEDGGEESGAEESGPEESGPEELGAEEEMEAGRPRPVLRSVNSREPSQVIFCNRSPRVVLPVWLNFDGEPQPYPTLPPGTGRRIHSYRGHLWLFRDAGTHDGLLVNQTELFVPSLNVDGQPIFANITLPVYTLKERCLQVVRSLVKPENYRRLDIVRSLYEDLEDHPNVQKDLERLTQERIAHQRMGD

Regarding `Cc1ncsc1-c1ccc(CNC(=O)[C@@H]2C[C@@H](O)CN2C(=O)[C@@H](NC(=O)COCCOCCOCCNC(=O)C[C@@H]2N=C(c3ccc(Cl)cc3)c3c(sc(C)c3C)-n3c(C)nnc32)C(C)(C)C)cc1`, the Activity was 25% in data set [1] and “Non-Toxic” in data set [3]. Also, the outcome in data set [2] was Active.

As for `Cc1sc2c(c1C)C(c1ccc(Cl)cc1)=N[C@@H](CC(=O)O)c1nnc(C)n1-2`, the Activity result in data set [3] is listed as “Non-Toxic”.

As for `Cc1sc2c(c1C)C(c1ccc(Cl)cc1)=N[C@@H](CC(=O)NCCCCCC(=O)O)c1nnc(C)n1-2`, the Activity entry in data set [3] was “Non-Toxic”.

With `Cc1sc2c(c1C)C(c1ccc(Cl)cc1)=N[C@@H](CC(=O)N1CCN(CC#Cc3ccc4c(c3)CN(C3CCC(=O)NC3=O)C4=O)CC1)c1nnc(C)n1-2` (stereo in doubt), the maximal response (Emax) in data set [4] is 96%. The outcome in data set [2] was Active.

Turning to `Cc1sc2c(c1C)C(c1ccc(Cl)cc1)=N[C@@H](CC(=O)N1CCN(CCCC3CCN(c4ccc5c(c4)CN(C4CCC(=O)NC4=O)C5=O)CC3)CC1)c1nnc(C)n1-2` (stereo in doubt; 11P), in data set [4], the maximal effect (Emax) was found to be 99%.
